≈ marks a conversion by molar mass, not a printed value. Read-outs that look alike come from different tables or passages of the source.
Assays:
[1] = tested on: Proteus mirablis (PR MI), strain 9921; assay: Agar serial dilution MIC, Proteus mirablis 9921; format: cell-based
Description: (§1) The antibacterial compounds of this invention are effective against gram-positive and gram-negative test organisms at inhibitory concentrations at or below 250 micrograms per milliliter using the well-known and scientifically accepted agar serial dilution technique. Thus, the antibacterial agents of this invention are useful in the fields of comparative pharmacology and microbiology and may be used in the treatment of infections amenable to treatment with cephalosporins and penicillins such as bovine mastitis as well as in the eradication of bacterial colonies outside the animal host.
(§2) The following examples are presented for purposes of illustration and should not be construed as limitations upon the true scope of this invention.

[2] = tested on: Klebsiella pneumoniae (KL PN), strain 10031; assay: Microdilution tube dilution assay MIC, Klebsiella pneumoniae 10031; format: cell-based; conditions: Mueller Hinton Broth, KL PN 10031
Description: as §2
KL PN--Klebsiella pneumoniae,
(§3) The product of Example 18 was reexamined by the microdilution method of tube dilution assay employing Mueller Hinton Broth whereby standardized cultures were introduced into serially diluted antibiotic from Example 18.

[3] = tested on: AC CA, strain 9955; assay: Agar serial dilution MIC, AC CA 9955; format: cell-based
Description: as §1, §2

[4] = tested on: Bordetella brochiseptica (BO BR), strain 4617; assay: Agar serial dilution MIC, Bordetella brochiseptica 4617; format: cell-based; conditions: BO BR 4617
Description: as §1, §2
BO BR--Bordetella brochiseptica, […]

[5] = tested on: Staphylococcus aureus (ST AU), strain 209P; assay: Microdilution tube dilution assay MIC, Staphylococcus aureus 209P; format: cell-based
Description: as §2
(§4) ST AU--Staphylococcus aureus,
as §3

[6] = tested on: Staphylococcus aureus (ST AU), strain CHP; assay: Agar serial dilution MIC, Staphylococcus aureus CHP; format: cell-based
Description: as §1, §2
(§5) ST AU--Staphylococcus aureus, […]

[7] = tested on: Staphylococcus aureus (ST AU), strain 53-180; assay: Microdilution tube dilution assay MIC, Staphylococcus aureus 53-180; format: cell-based; conditions: Mueller Hinton Broth, ST AU 53-180
Description: as §2, §4, §3

[8] = tested on: ES IN, strain 65-1; assay: Microdilution tube dilution assay MIC, ES IN 65-1; format: cell-based, Escherichia intermedia; conditions: Citrobacter intermedius
Description: as §2
ES IM--Escherichia intermedia.
as §3

[9] = tested on: Proteus mirablis (PR MI), strain 9921; assay: Microdilution tube dilution assay MIC, Proteus mirablis 9921; format: cell-based
Description: as §2, §3

[10] = tested on: Escherichia coli (ES CO), strain 9637; assay: Microdilution tube dilution assay MIC, Escherichia coli 9637; format: cell-based; conditions: Mueller Hinton Broth, ES CO 9637
Description: as §2, §3

[11] = tested on: Salmonella paratyphi (SA PA), strain 11737; assay: Microdilution tube dilution assay MIC, Salmonella paratyphi 11737; format: cell-based; conditions: Salmonella enterica
[12] = tested on: Escherichia coli (ES CO), strain 9637; assay: Agar serial dilution MIC, Escherichia coli 9637; format: cell-based; conditions: ES CO 9637
Description: as §1, §2

[13] = tested on: Staphylococcus aureus (ST AU), strain SMITH; assay: Agar serial dilution MIC, Staphylococcus aureus SMITH; format: cell-based
Description: as §1, §2, §5

[14] = tested on: Pseudomonas aeruginosa (PS AE), strain 10145; assay: Microdilution tube dilution assay MIC, Pseudomonas aeruginosa 10145; format: cell-based; conditions: Mueller Hinton Broth, PS AE 10145
Description: as §2
PS AE--Pseudomonas aeruginosa,
as §3

[15] = tested on: Staphylococcus aureus (ST AU), strain SMITH; assay: Microdilution tube dilution assay MIC, Staphylococcus aureus SMITH; format: cell-based; conditions: Mueller Hinton Broth
Description: as §2, §4, §3

[16] = tested on: Bordetella brochiseptica (BO BR), strain 4617; assay: Microdilution tube dilution assay MIC, Bordetella brochiseptica 4617; format: cell-based; conditions: Mueller Hinton Broth, BO BR 4617
Description: as §2
BO BR--Bordetella brochiseptica,
as §3

[17] = tested on: Enterobacter aerogenes (EN AE), strain 13048; assay: Microdilution tube dilution assay MIC, Enterobacter aerogenes 13048; format: cell-based; conditions: Klebsiella aerogenes
Description: as §2
EN AE--Enterobacter aerogenes,
as §3

[18] = tested on: Staphylococcus aureus (ST AU), strain CHP; assay: Microdilution tube dilution assay MIC, Staphylococcus aureus CHP; format: cell-based; conditions: Mueller Hinton Broth
Description: as §2, §4, §3

[19] = tested on: Staphylococcus aureus (ST AU), strain 6538P; assay: Agar serial dilution MIC, Staphylococcus aureus 6538P; format: cell-based; conditions: ST AU 6538P
Description: as §1, §2, §5

[20] = tested on: Salmonella paratyphi (SA PA), strain 11737; assay: Agar serial dilution MIC, Salmonella paratyphi 11737; format: cell-based; conditions: Salmonella enterica
Description: as §1, §2
SA PA--Salmonella paratyphi, […]

[21] = tested on: Klebsiella pneumoniae (KL PN), strain 10031; assay: Agar serial dilution MIC, Klebsiella pneumoniae 10031; format: cell-based; conditions: KL PN 10031
Description: as §1, §2
KL PN--Klebsiella pneumoniae, […]

[22] = tested on: Proteus vulgaris (PR VU), strain 6896; assay: Microdilution tube dilution assay MIC, Proteus vulgaris 6896; format: cell-based; conditions: Mueller Hinton Broth, PR VU 6896
Description: as §2, §3

[23] = tested on: Enterobacter aerogenes (EN AE), strain 13048; assay: Agar serial dilution MIC, Enterobacter aerogenes 13048; format: cell-based; conditions: Klebsiella aerogenes, EN AE 13048
Description: as §1, §2
EN AE--Enterobacter aerogenes, […]

[24] = tested on: Proteus vulgaris (PR VU), strain 6896; assay: Agar serial dilution MIC, Proteus vulgaris 6896; format: cell-based
Description: as §1, §2

[25] = tested on: Bacillus subtilis (BA SU), strain 6633; assay: Agar serial dilution MIC, Bacillus subtilis 6633; format: cell-based
Description: as §1, §2
BA SU--Bacillus subtilis, […]

[26] = tested on: Herellea species (HE SP), strain 9955; assay: Microdilution tube dilution assay MIC, Herellea species 9955; format: cell-based; conditions: Mueller Hinton Broth, HE SP 9955
Description: as §2, §3

[27] = tested on: Bacillus subtilis (BA SU), strain 6633; assay: Microdilution tube dilution assay MIC, Bacillus subtilis 6633; format: cell-based
Description: as §2
BA SU--Bacillus subtilis,
as §3

[28] = tested on: Staphylococcus aureus (ST AU), strain 53-180; assay: Agar serial dilution MIC, Staphylococcus aureus 53-180; format: cell-based
Description: as §1, §2, §5

[29] = tested on: Enterobacter cloacae (EN CL), strain 65-1; assay: Agar serial dilution MIC, Enterobacter cloacae 65-1; format: cell-based; conditions: EN CL 65-1
Description: as §1, §2
EN CL--Enterobacter cloacae, […]

SMILES | MIC [2] | MIC [7] | MIC [10] | MIC [11] | MIC [12] | MIC [14] | MIC [15] | MIC [16] | MIC [18] | MIC [19] | MIC [20] | MIC [21] | MIC [22] | MIC [23] | MIC [26] | MIC [29] | further results
CO/N=C(\C(=O)NC1C(=O)N2C(C(=O)O)=C(COC(C)=O)CSC12)c1cc(N)no1 (stereo not drawn) [Example 18, 3-Acetoxymethyl-7-[2-(3-Amino-5-Isoxazolyl)-2-syn-Methoxy-Iminoacetamido]-Ceph-3-em-4-Carboxylic Acid] | 15.2 ng/mL (≈ 0.0346 µM) | 0.488 µg/mL (≈ 1.11 µM) | 0.122 µg/mL (≈ 0.278 µM) | 0.488 µg/mL (≈ 1.11 µM) | 0.488 µg/mL (≈ 1.11 µM) | 125 µg/mL (≈ 284 µM) | 0.244 µg/mL (≈ 0.555 µM) | 125 µg/mL (≈ 284 µM) | 3.9 µg/mL (≈ 8.88 µM) | 1.95 µg/mL (≈ 4.44 µM) | 0.488 µg/mL (≈ 1.11 µM) | 0.488 µg/mL (≈ 1.11 µM) | 0.122 µg/mL (≈ 0.278 µM) | 31.3 µg/mL (≈ 71.2 µM) | 62.5 µg/mL (≈ 142 µM) | 1.95 µg/mL (≈ 4.44 µM) | MIC [1]: 0.488 µg/mL (≈ 1.11 µM); MIC [3]: 125 µg/mL (≈ 284 µM); MIC [4]: 250 µg/mL (≈ 569 µM); MIC ([5]; microdilution, Mueller Hinton Broth, ST AU 209P, read-out: MIC): 0.244 µg/mL (≈ 0.555 µM); MIC ([6]; agar serial dilution, ST AU CHP, read-out: MIC): 7.81 µg/mL (≈ 17.8 µM); MIC [8]: 0.488 µg/mL (≈ 1.11 µM); MIC ([9]; microdilution, Mueller Hinton Broth, PR MI 9921, read-out: MIC): 0.122 µg/mL (≈ 0.278 µM); MIC [13]: 0.488 µg/mL (≈ 1.11 µM); MIC [17]: 0.976 µg/mL (≈ 2.22 µM); MIC [24]: 0.976 µg/mL (≈ 2.22 µM); MIC [25]: 0.488 µg/mL (≈ 1.11 µM); MIC ([27]; microdilution, Mueller Hinton Broth, BA SU 6633, read-out: MIC): 1.95 µg/mL (≈ 4.44 µM); MIC ([28]; agar serial dilution, ST AU 53-180, read-out: MIC): 3.9 µg/mL (≈ 8.88 µM)
CO/N=C(\C(=O)N[C@@H]1C(=O)N2C(C(=O)O)=C(COC(C)=O)CS[C@H]12)c1csc(N)n1 [Cefotaxime, reference compound] | 0.06 ng/mL (≈ 0.000132 µM) | 0.976 µg/mL (≈ 2.14 µM) | 0.0038 µg/mL (≈ 0.00834 µM) | 0.0076 µg/mL (≈ 0.0167 µM) | – | 3.9 µg/mL (≈ 8.56 µM) | 0.244 µg/mL (≈ 0.536 µM) | 15.6 µg/mL (≈ 34.3 µM) | 3.9 µg/mL (≈ 8.56 µM) | – | – | – | 0.00023 µg/mL (≈ 0.000505 µM) | – | 15.6 µg/mL (≈ 34.3 µM) | – | MIC ([5]; 209P): 0.488 µg/mL (≈ 1.07 µM); MIC ([8]; microdilution, Mueller Hinton Broth, ES IN 65-1, read-out: MIC): 0.0038 µg/mL (≈ 0.00834 µM); MIC [9]: 0.0019 µg/mL (≈ 0.00417 µM); MIC ([17]; microdilution, Mueller Hinton Broth, EN AE 13048, read-out: MIC): 0.0152 µg/mL (≈ 0.0334 µM); MIC [27]: 0.488 µg/mL (≈ 1.07 µM)
CO/N=C(/C(=O)NC1C(=O)N2C(C(=O)O)=C(COC(C)=O)CSC12)c1cc(N)no1 (stereo not drawn) [Example 15, 3-Acetoxymethyl-7-[2-(3-Amino-5-Isoxazolyl)-2-anti-Methoxyiminoacetamido]-Ceph-3-em-4-Carboxylic Acid] | – | – | – | – | 15.6 µg/mL (≈ 35.5 µM) | – | – | – | – | 7.81 µg/mL (≈ 17.8 µM) | 15.6 µg/mL (≈ 35.5 µM) | 15.6 µg/mL (≈ 35.5 µM) | – | 62.5 µg/mL (≈ 142 µM) | – | 62.5 µg/mL (≈ 142 µM) | MIC ([1]; agar serial dilution, PR MI 9921, read-out: MIC): 7.81 µg/mL (≈ 17.8 µM); MIC [6]: 15.6 µg/mL (≈ 35.5 µM); MIC ([13]; agar serial dilution, ST AU SMITH, read-out: MIC): 3.9 µg/mL (≈ 8.88 µM); MIC ([24]; agar serial dilution, PR VU 6896, read-out: MIC): 31.3 µg/mL (≈ 71.2 µM); MIC ([25]; agar serial dilution, BA SU 6633, read-out: MIC): 7.81 µg/mL (≈ 17.8 µM); MIC [28]: 15.6 µg/mL (≈ 35.5 µM)
